Earlier results, collected in patent US20070082912A1, “Pyrrole compounds for the treatment of prostaglandine mediated diseases” (priority 2002, published 2007).

Legend:
[1] = system: rat model of chronic constriction injury; conditions: Anesthesia and Analgesia 2001, 93, 1012-7
[2] = system: rodent model of post-operative pain; conditions: Anesthesia and Analgesia 2001, 92, 233-238

Structure (SMILES): Cc1cc(Cl)ccc1S(=O)(=O)NC[C@H]1C2CCC(CC2)[C@@H]1/C=C\CCCC(=O)O [ONO-871 1]
- hyperalgesia and allodynia [1]: reduces hyperalgesia and allodynia
- mechanical hyperalgesia [2]: inhibits mechanical hyperalgesia
